Patent publication US11001583B2, “Dihydropyrrolopyridine inhibitors of ROR-gamma” (Vitae Pharmaceuticals, LLC, priority 2014, dated 2021)

How the values were obtained:
[1] = biological target: hERG (human ether-à-go-go-related gene) potassium ion channel (Homo sapiens (Human), UniProt Q12809); assay: hERG Assay (Assay 4); format: cell-based; details: patch clamp, HEK 293 cells
Protocol: Compounds of the invention were tested in vitro against the hERG (human ether-à-go-go-related gene) potassium ion channel (a surrogate for IKr, the rapidly activating delayed rectifier cardiac potassium ion channel).
The buffer was HEPES-buffered physiological saline (HB-PS) solution composed of: 137 mM NaCl, 4.0 mM KCl, 1.8 mM CaCl2, 1 mM MgCl2, 10 mM HEPES, 10 mM glucose, pH adjusted to 7.4 with NaOH, and 0.3% DMSO. Chemicals used in solution preparation were purchased from Sigma-Aldrich (St. Louis, Mo.), unless otherwise noted, and were of ACS reagent grade purity or higher.
HEK (human embryonic kidney) 293 cells were stably transfected with hERG cDNA.
For the patch clamp experiment, onset and steady state inhibition of hERG potassium current was measured using a pulse pattern with fixed amplitudes (depolarization: +20 mV for 2 s; repolarization: −50 mV for 2 s) repeated at 10 s intervals from a holding potential of −80 mV. Peak tail current was measured during the 2 s step to −50 mV. A steady state was maintained for at least 30 seconds before applying compound or positive control (cisapride). Peak tail currents were measured until a new steady state was achieved.
Data acquisition and analyses were performed using the suite of pCLAMP® (ver. 8.2) programs (MDS Analytical Technologies, Sunnyvale, Calif.). Steady state was defined by the limiting constant rate of change with time (linear time dependence). The steady state before and after each compound application was used to calculate the percentage of current inhibited at each concentration.
Concentration-response data were fit to an equation of the following form: % Inhibition={1−1/[1+([Test]/IC50)N]}*100
where [Test] was the compound concentration, IC50 was the compound concentration at half-maximal inhibition, N was the Hill coefficient, and % Inhibition was the percentage of current inhibited at each compound concentration. Nonlinear least squares fits were solved with the Solver add-in for Excel 2003 (Microsoft, Wash.) and the IC50 was calculated.

IL-17A production = assay: Human Whole Blood Assay (Assay 3); format: cell-based; details: IL-17A secretion, 50% blood/media
Protocol: Human Whole Blood Assay (Assay 3)
Compounds of the invention were tested in the human whole blood assay to measure their effects on IL-17A production as determined by cytokine secretion into 50% blood/media supernatant. Mixtures of sodium heparinized whole blood (isolated from healthy human donors) and the T cell activator CytoStim, in the presence or absence of compound, were plated in sterilized, tissue culture-treated 24-well plates. Specifically, the mixtures in each well were as follows: (1) 500 μL of whole blood, (2) 250 μL of compound diluted into RPMI-1640 media containing 10% HyClone™ FCS (Thermo Fisher Scientific, Waltham, Mass.), Gibco® Pen/Strep and Gibco® NEAA (Life Technologies, Grand Island, N.Y.), and (3) 250 μL, of CytoStim (Miltenyi Biotech, Germany) diluted to a final concentration of 10 μL/mL in complete cell culture medium.
Mixtures were incubated at 37° C./5% CO2 for 48 h, after which, 200 μL of clean supernatant (i.e., no red blood cells) from each well was transferred to a well in a 96-well plate. IL-17A cytokine expression was determined using 25 μL of the transferred supernatant diluted with 25 μL of Diluent 43 from the Human IL-17A V-PLEX™ kit (cat. #K151RFD-4, Meso Scale Discovery, Rockville, Md.). The assay was performed according to the manufacturer's instructions using included reagents. The IL-17A V-PLEX™ plates were read using the Meso Scale Discovery Imager (Model 1200). The levels of IL-17A were extrapolated from a standard curve using a four-parameter non-linear fitting model and expressed as pg/mL. These values were regressed against concentrations of the tested compounds to derive IC50 values using a four-parameter non-linear fitting model.

[2] = biological target: recombinant RORγ Ligand Binding Domain (LBD) protein (Homo sapiens (Human), UniProt P51449); assay: Radio-Ligand RORγ Binding Assay (Assay 1); details: competition with 25-hydroxy [26,27-3H]-cholesterol, SPA; read-out: RORγ Binding Ki Range (nM) (Assay 1)
Protocol: Radio-Ligand RORγ Binding Assay (Assay 1)
Compounds of the present invention were tested for ability to bind to RORγ in a cell-free competition assay with commercially available radio-ligand (RL), 25-hydroxy [26,27-^3H]-cholesterol (PerkinElmer, Cat. #NET674250UC), for a ligand binding site on a recombinant RORγ Ligand Binding Domain (LBD) protein expressed as a 6×His-Glutathione-S-Transferase (GST) fusion. […] The plate was shaken at 700 rpm for 20 min and incubated for 10 min at rt, after which 40 μL of poly-Lys YSi SPA beads (PerkinElmer, Cat. #RPNQ0010) were added to achieve 50 μg of the beads per well. The plate was incubated on an orbital shaker for 20 min and then for 10 min without agitation at rt. SPA signal for tritium beta radiation was registered on PerkinElmer Microbeta plate reader. […] The percent inhibition vs. concentration data were fit into a four-parameter model, and IC50 values were calculated from the fit as the concentrations corresponding to the inflection points on the dose-response curves.

full-length RORγt = full-length RORγt (Homo sapiens (Human), UniProt P51449); assay: RORγt 5×RORE Assay in Jurkat Cells (Assay 2); format: cell-based; details: 5×RORE luciferase reporter, read-out: RORγt5X IC50 Range (nM) (Assay 2)
Protocol: RORγt 5×RORE Assay in Jurkat Cells (Assay 2)
Compounds of the present invention were tested for RORγ inverse agonist activity in a cell-based, transcriptional activity assay. […] (Promega, Cat. #N1021) using KpnI and HindIII restriction sites. […] Tested compounds were added to the cells in the same media (final concentration of DMSO was 0.1% (v/v)), and the plates were incubated at 37° C./5% CO2 for 16-18 hr. Luciferase activity in the conditioned supernatants was determined with NanoGlo® assay reagents (Promega, Cat. #N1130).

Sequence of hERG (human ether-à-go-go-related gene) potassium ion channel (Q12809 whole entry): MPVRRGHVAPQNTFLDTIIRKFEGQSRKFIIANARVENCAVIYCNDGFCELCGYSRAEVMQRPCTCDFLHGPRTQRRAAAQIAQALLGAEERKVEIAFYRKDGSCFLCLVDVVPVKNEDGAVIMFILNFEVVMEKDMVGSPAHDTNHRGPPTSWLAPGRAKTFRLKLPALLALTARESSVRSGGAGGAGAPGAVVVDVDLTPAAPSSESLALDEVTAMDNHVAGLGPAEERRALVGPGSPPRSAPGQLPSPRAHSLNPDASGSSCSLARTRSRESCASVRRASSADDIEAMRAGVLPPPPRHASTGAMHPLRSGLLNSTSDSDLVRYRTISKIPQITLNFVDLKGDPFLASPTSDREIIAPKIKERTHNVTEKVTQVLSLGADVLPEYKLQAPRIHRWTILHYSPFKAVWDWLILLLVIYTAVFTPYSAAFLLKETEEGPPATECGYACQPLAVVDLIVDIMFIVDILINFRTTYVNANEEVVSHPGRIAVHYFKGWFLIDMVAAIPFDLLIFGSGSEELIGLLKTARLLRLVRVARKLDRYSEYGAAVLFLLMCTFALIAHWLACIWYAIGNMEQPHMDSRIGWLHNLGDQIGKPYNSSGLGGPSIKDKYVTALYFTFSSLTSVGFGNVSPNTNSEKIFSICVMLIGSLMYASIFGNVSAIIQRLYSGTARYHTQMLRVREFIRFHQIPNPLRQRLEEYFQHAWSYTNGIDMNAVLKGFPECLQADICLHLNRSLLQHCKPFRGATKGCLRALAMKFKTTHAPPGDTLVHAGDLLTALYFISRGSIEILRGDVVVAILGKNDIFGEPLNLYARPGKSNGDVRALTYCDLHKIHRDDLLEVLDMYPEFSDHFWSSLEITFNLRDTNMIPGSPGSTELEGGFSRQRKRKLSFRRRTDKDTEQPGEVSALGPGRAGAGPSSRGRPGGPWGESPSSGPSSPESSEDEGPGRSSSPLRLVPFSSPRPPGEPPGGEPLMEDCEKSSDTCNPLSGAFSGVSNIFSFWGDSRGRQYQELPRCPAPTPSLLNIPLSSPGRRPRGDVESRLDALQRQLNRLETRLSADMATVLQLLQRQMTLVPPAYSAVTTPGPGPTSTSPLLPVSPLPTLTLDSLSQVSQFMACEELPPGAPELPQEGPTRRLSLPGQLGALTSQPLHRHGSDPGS
Sequence of recombinant RORγ Ligand Binding Domain (LBD) protein (P51449 269-508): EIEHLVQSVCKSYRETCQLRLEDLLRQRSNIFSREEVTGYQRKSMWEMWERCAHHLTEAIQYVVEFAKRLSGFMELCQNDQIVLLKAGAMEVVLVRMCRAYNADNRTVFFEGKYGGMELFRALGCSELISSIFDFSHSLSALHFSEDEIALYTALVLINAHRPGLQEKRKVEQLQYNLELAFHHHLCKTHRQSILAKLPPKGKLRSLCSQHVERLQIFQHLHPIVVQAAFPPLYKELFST
Sequence of full-length RORγt (P51449 other isoform, or with tags, fused parts or gaps): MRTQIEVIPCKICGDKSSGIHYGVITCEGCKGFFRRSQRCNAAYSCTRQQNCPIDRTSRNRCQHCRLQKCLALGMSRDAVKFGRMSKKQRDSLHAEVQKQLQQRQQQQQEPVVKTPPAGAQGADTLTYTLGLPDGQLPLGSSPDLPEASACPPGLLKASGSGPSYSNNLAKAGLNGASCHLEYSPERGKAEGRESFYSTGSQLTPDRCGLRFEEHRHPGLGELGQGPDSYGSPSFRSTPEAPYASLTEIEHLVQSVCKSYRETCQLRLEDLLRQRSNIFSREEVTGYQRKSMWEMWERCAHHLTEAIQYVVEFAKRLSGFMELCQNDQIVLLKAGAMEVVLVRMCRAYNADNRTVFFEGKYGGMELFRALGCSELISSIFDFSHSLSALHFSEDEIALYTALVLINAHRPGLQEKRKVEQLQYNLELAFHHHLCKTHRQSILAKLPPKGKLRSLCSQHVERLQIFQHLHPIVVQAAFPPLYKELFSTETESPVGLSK

SMILES	IC50 (IL-17A production; CytoStim, 48 h)	hERG Assay (Compound at 3 μM) % Inhibition (Assay 4) [1]	also measured
CCS(=O)(=O)c1ccc(CNC(=O)c2cnc3c(c2)CN(C[C@H]2CC[C@H](C(F)(F)F)CC2)[C@H]3C(C)C)cc1			hERG Assay (Compound at 3 μM) % Inhibition (Assay 4) ([1]; comparator compounds): 57.0%
CC[C@H]1c2ncc(C(=O)N[C@@H](COC)c3ccc(S(=O)(=O)CC)cc3)cc2CN1C[C@@H]1CC[C@@H](C(F)(F)F)OC1 (single isomer, unassigned) [Compound 4]	< 100 nM		
CC[C@H]1c2ncc(C(=O)N[C@@H](COC)c3ccc(S(=O)(=O)CC)cc3)cc2CN1C[C@H]1CC[C@H](C(F)(F)F)OC1 (single isomer, unassigned) [Compound 3]	< 100 nM	24.3%	
CCS(=O)(=O)c1ccc(CNC(=O)c2cnc3c(c2)CN(C[C@H]2CC[C@H](C(F)(F)F)CC2)[C@H]3C(C)C)nc1			IC50 (IL-17A production; comparator compounds): > 200 nM; hERG Assay (Compound at 3 μM) % Inhibition (Assay 4) ([1]; comparator compounds): 45.4%
CCOC[C@H](NC(=O)c1cnc2c(c1)CN(C[C@H]1CC[C@H](C(F)(F)F)CC1)[C@H]2C(C)C)c1ccc(S(=O)(=O)CC)cc1 [Compound 7]			Ki [2]: < 100 nM; IC50 (full-length RORγt): 100 to 1000 nM
CC[C@H]1c2ncc(C(=O)N[C@@H](COC)c3ccc(S(=O)(=O)CC)cc3)cc2CN1C[C@H]1CC[C@H](C(F)(F)F)CC1 [Compound 1, (S)-7-ethyl-N—((R)-1-(4-(ethylsulfonyl)phenyl)-2-methoxyethyl)-6-((trans-4-(trifluoromethyl)cyclohexyl)methyl)-6,7-dihydro-5H-pyrrolo[3,4-b]pyridine-3-carboxamide]		24.3%	
CCS(=O)(=O)c1ccc([C@H](COC)NC(=O)c2cnc3c(c2)CN(C[C@H]2CC[C@H](C(F)(F)F)CC2)[C@H]3C(C)C)cc1 [Compound 15]	< 100 nM	50%	
CC[C@H]1c2ncc(C(=O)N[C@@H](COC(N)=O)c3ccc(S(=O)(=O)CC)cc3)cc2CN1C[C@H]1CC[C@H](C(F)(F)F)CC1 [Compound 2, (R)-2-((S)-7-ethyl-6-((trans-4-(trifluoromethyl)cyclohexyl)methyl)-6,7-dihydro-5H-pyrrolo[3,4-b]pyridine-3-carboxamido)-2-(4-(ethylsulfonyl)phenyl)ethyl Carbamate]		38.8%	
CCS(=O)(=O)c1ccc([C@@H](COC(N)=O)NC(=O)c2cnc3c(c2)CN(C[C@H]2CC[C@H](C(F)(F)F)CC2)[C@H]3C(C)C)cc1 [Compound 12]	100 to 200 nM	38.8%	
